From patent publication US4296206A, “Irreversible anti-glucocorticoids” (United States of America, priority 1980, dated 1981)
Several values for one entry are separate records, joined by “and”; a condition that tells them apart may be missing. Equal values may be shown once. Entries after “also recorded” stand apart in the source; their conditions may differ.

Legend:
[1] = target: T1, HTC cell glucocorticoid receptors (Rattus norvegicus, UniProt P06536); experiment: cell-free competition assay with 3H-dexamethasone, crude HTC cell receptors; type: binding
T1 construct: crude receptors from a well characterized line of rat hepatoma tissue culture (HTC) cells; endogenous in cells; host or cells: HTC (rat hepatoma tissue culture) cells, crude cytosol
T1 sequence (P06536 1-795): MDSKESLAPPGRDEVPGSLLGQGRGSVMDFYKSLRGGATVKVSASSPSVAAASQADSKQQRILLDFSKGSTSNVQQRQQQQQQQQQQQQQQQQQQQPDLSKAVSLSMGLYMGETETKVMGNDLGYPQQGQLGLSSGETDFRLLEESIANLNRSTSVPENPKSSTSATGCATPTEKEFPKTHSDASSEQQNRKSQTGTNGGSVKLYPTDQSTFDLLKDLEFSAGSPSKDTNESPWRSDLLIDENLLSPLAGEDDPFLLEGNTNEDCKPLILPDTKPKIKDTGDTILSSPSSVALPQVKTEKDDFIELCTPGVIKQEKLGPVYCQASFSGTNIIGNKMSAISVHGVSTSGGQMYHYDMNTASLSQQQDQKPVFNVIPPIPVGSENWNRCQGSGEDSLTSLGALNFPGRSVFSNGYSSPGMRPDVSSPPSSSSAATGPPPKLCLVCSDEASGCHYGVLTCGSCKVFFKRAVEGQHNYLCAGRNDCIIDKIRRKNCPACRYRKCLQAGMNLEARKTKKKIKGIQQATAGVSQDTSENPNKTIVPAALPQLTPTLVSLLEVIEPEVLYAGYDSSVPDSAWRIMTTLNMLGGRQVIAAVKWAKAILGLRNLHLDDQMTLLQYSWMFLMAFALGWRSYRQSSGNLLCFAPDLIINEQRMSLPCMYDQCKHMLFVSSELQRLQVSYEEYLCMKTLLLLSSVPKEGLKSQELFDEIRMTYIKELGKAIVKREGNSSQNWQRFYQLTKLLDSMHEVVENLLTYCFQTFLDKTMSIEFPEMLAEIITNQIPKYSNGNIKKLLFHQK
Text: (§1) Ir (nujol) ~3400. 1733, 1659, 1359, 1170 cm^-1. […] 59.98; H. 7.32; S. 7.28.
In general, the introduction of bulky substituents on the C21 of glucocorticoids results in derivatives with a reduced affinity for glucocorticoid receptors as described, for example, in Failla, D. et al., Proc. Nat. Acad. Sci. USA, 72, 3849-3852 (1975). […] The data for FIG. 1 was obtained from a determination of relative affinities of cortisol and cortisol-21-mesylate for HTC cell glucocorticoid receptors in a cell-free competition assay. Duplicate crude HTC cell receptor solutions were incubated for 3 hrs at 0° with 5.6×10^-9 M ^3 H-dexamethasone and varying concentrations of cortisol, or CM (final protein concentration=5.1 mg/ml). A 500 fold excess of ^1 H-dexamethasone was used to determine the level of non-specific binding of ^3 H-steroid. The average specifically bound ^3 H-dexamethasone in the presence of varying concentrations of cortisol or CM was plotted as % of the uncompeted control (variation less than ±4%).

[2] = test system: tyrosine aminotransferase (TAT) induction in HTC cells; experiment: induction of tyrosine aminotransferase (TAT) in whole HTC cells; type: cell-based, rat
Text: as §1
HTC cells display several biological responses to glucocorticoids. Tyrosine aminotransferase (TAT) is one specific, glucocorticoid inducible enzyme in HTC cells; and previous extensive studies argue that TAT induction in HTC cells is a primary response to glucocorticoids that is initiated by the binding of steroid to a specific, cytoplasmic receptor. […] The basal level of TAT activity is shown by the dashed line.

[3] = target: T2, dexamethasone induction of TAT in HTC cells (Rattus norvegicus, UniProt P06536); experiment: inhibition of dexamethasone induction of TAT activity in whole HTC cells; type: cell-based
T2 construct: endogenous in cells; host or cells: HTC (rat hepatoma tissue culture) cells, whole, monolayer or spinner cultures
T2 sequence (P06536 1-795): T1 sequence (P06536 1-795)
Method: as §1
Alternatively, CM could be a anti-inducer, or inhibitor of glucocorticoid action. […] After the usual incubation (18 hrs/37°) and work-up, the specific enzyme activity of TAT was plotted against the concentration of that steroid present in varying amounts. The range of each duplicate determination is shown by error bars when it exceeds the area of the data points. The basal level of TAT activity is indicated by the dashed line.

[4] = target: T2, dexamethasone induction of TAT in HTC cells; experiment: TAT induction after pre-treatment of HTC cells and washing (reversibility); type: cell-based; details: for reversal of pre-incubation effect on dexamethasone induction of TAT by washing the cells: pre-incubation overnight, wash, then 2×10^-8 M dexamethasone
Method: One approach to establishing CM as an irreversible inhibitor of TAT induction by glucocorticoids is to determine whether the effects of CM can be reversed by washing the cells.
After incubation at 37°/15 1/2 hrs, ~6×10^7 cells were centrifuged at 600 xg/10 min/22°and resuspended in 200 ml of "conditioned" medium that had also been "incubated" at 37°/15 1/2 hrs. After a second centrifugation, each cell pellet was again resuspended in 210 ml of "conditioned" medium. […] The cells in Wheaton bottles were incubated in a rotating water bath (37°/175 rpm) with 3 ml aliquots being removed at various time points for protein and TAT determinations in the usual manner.

[5] = target: T1, HTC cell glucocorticoid receptors; experiment: cell-free exchange assay (3H-dexamethasone exchange binding to pre-formed complexes); details: for effect of pre-incubation of steroid-free receptors on subsequent exchange-binding of 3H-dexamethasone: cell-free
Method: as §1
To examine this possibility in more detail, a determination was made as to whether the cell-free binding of CM to HTC cell receptors is reversible. Using the previously described exchange assay, crude HTC cell receptors were incubated with enough cortisol, or CM, to occupy ~75% of the receptor based on data of FIG. 1. After ~3 hrs, activated charcoal was added to remove free steroid and to inactivate steroid-free receptors. An excess of ^3 H-dexamethasone was then added to exchange-bind to the previously formed receptor-steroid complexes. […] Thus CM is an irreversible inhibitor of one aspect of glucocorticoid action in broken cells, i.e., the ability of glucocorticoids to exchange-bind to receptor-glucocorticoid complexes.
FIG. 5 is based on data obtained in studying inhibition of ^3 H-dexamethasone exchange binding to pre-formed complexes by cortisol-21-mesylate. Using the previously described exchange assay, crude HTC cell receptors were pre-incubated with 6×10^-8 M cortisol or 1.35×10^-6 M CM for 2.8 hrs at 0° (final protein concentration=7.0 mg/ml). After addition of activated charcoal to remove free steroid, and to inactivate steroid-free receptors, followed by centrifugation to pellet the activated charcoal, the pre-incubated cytosols were adjusted to 1.9×10^-8 M ^3 H-dexamethasone ±1.1×10^-5 M ^1 H-dexamethasone. After subsequent incubation for the indicated time, activated charcoal was again added to determine the amount of specifically bound ^3 H-dexamethasone (=total-non-specific binding) that was formed by exchange binding in cortisol or CM pre-incubated cytosols. For comparison, the amount of non-specific binding in cortisol or CM pre-incubated receptor solutions is shown in dashed lines.

[6] = test system: rats; experiment: experiment with rats, daily intraperitoneal injections; type: in vivo, rat
Text: In the experiments and uses of CM and DM described above, the toxicity of either compound was negligible. […] In order to be more useful in animals and people, two approaches can be used to reduce this toxicity. […] Second, alternative routes of administration (e.g., oral, intravenous, intramuscular and subcutaneous) might be less toxic.

[7] = test system: HTC cells
[8] = in vitro; details: rat, htc cells
[9] = cell toxicity in HTC cells (protein content, cell number, trypan blue exclusion); details: rat

SMILES: C[C@]12CCC(=O)C=C1CC[C@@H]1[C@@H]2[C@@H](O)C[C@@]2(C)[C@H]1CC[C@]2(O)C(=O)COS(C)(=O)=O [CM, 4-pregnene-11β, 17α, 21-triol-3, 20-dione-21-methanesulfonate]
- cell-free affinity for the glucocorticoid receptors of HTC cells [1]: low but significant
- affinity for glucocorticoid receptors, fold lower than that of the parent steroid cortisol ([1]; 3 hrs at 0°, 5.6×10^-9 M 3H-dexamethasone, crude HTC cell receptors): 15 fold
- apparent Kd with HTC cell glucocorticoid receptors, times greater than the Kd of cortisol ([1]; CM): 15 times
- induction of TAT in whole HTC cells ([2]; 18 hrs at 37°): completely inactive; also recorded: does not induce TAT
- Ki [3]: ~100 nM
- inhibition of TAT induction by dexamethasone in whole cells [3]: potent inhibitors
- TAT induction by 2×10^-8 M dexamethasone in the presence of the compound ([3]; 1.3×10^-6 M CM): slight but significant increase in TAT
- TAT induction by 10^-7 M cortisol in the presence of the compound ([3]; 1.3×10^-6 M CM): unable to induce TAT
- duration of activity as anti-glucocorticoid in HTC cell cultures ([3]; 37°, tissue culture): ~ 18 hrs and 17-18 hrs
- time after which no longer completely inhibitory (some inducibility of TAT returns) ([3]; HTC cells): about 24 hr
- magnitude of TAT induction 24 hrs after the wash procedure in pre-treated, post-dexamethasone treated cells ([4]; 24 hrs after wash): significantly reduced; also recorded: only partial induction
- appearance of TAT in pre-treated cells, delay after TAT induction in EtOH or progesterone pre-treated cells ([4]; average of three experiments): 2.7 h
- time without TAT induction after the wash procedure in pre-treated, post-dexamethasone treated cells ([4]; pre-CM, post-dexamethasone): ~ 8 hrs and 6-8 hrs
- reversal of pre-incubation effect on dexamethasone induction of TAT by washing the cells [4]: can not reverse; also recorded: cannot be reversed by washing the cells
- effect of pre-incubation of steroid-free receptors on subsequent exchange-binding of 3H-dexamethasone [5]: inhibits
- inhibition at 1.35 µM ([5]; pre-incubation 1.35×10^-6 M CM, ~3 hrs at 0°, read-out: reduction of the ability of receptors to exchange-bind 3H-dexamethasone): ~75%
- anti-glucocorticoid activity in rats ([6]; daily intraperitoneal injections of 10-50 mg per kilogram): some anti-glucocorticoid activity
- toxicity in rats at higher doses ([6]; ≥100 mg/kilogram, intraperitoneal): peritonitis and death
- effect on cell number [7]: no effect
- effect on total cell protein [7]: ~1% increase to 6% decrease
- cytotoxicity [8]: 20%
- cytotoxicity at 13 µM [9]: 12%
- viability [9]: 93 to 94%

SMILES: C[C@@H]1C[C@H]2[C@@H]3CCC4=CC(=O)C=C[C@]4(C)[C@@]3(F)[C@@H](O)C[C@]2(C)[C@@]1(O)C(=O)COS(C)(=O)=O [DM, 16α-methyl-9α-fluoro-1,4-pregnadiene-11β, 17α, 21-triol-3, 20-dione-21-methane-sulfonate]
- cell-free affinity for the glucocorticoid receptors of HTC cells [1]: low but significant
- affinity for cell free receptors, fold higher than CM ([1]; cell free receptors): approximately 10 fold
- Emax ([2]; Rattus norvegicus, whole HTC cells, read-out: induction of TAT in HTC cells, % of full induction): ~25%
- inhibition of TAT induction by dexamethasone in whole cells [3]: potent inhibitors
- reversal of pre-incubation effect on dexamethasone induction of TAT by washing the cells [4]: cannot be reversed by washing the cells
- effect of pre-incubation of steroid-free receptors on subsequent exchange-binding of 3H-dexamethasone [5]: inhibits
